± gives the expanded uncertainty stated by the source.
Settings: 101.33 kPa, Liquid; for electrical conductivity: Alternating current cell with electrodes; for mass density: Vibrating tube method

SMILES | electrical conductivity (248.05 K) | electrical conductivity (258.05 K) | electrical conductivity (268.1 K) | electrical conductivity (278.1 K) | mass density (278.1 K) | electrical conductivity (288.15 K) | mass density (288.15 K) | electrical conductivity (298.15 K) | mass density (298.15 K) | electrical conductivity (308.15 K) | mass density (308.15 K) | electrical conductivity (318.15 K) | mass density (318.15 K) | electrical conductivity (328.15 K) | mass density (328.15 K) | electrical conductivity (338.15 K) | mass density (338.15 K) | electrical conductivity (348.15 K) | electrical conductivity (358.15 K) | electrical conductivity (368.15 K) | further results
CCCCn1cc[n+](C)c1.F[B-](F)(F)F [1-butyl-3-methylimidazolium tetrafluoroborate] | 0.00778 ± 8e-05 S/m | 0.0225 ± 0.0002 S/m | 0.0542 ± 0.0005 S/m | 0.1132 ± 0.0011 S/m | 1215.43 ± 2.9 kg/m3 | 0.211 ± 0.002 S/m | 1209.33 ± 2.8 kg/m3 | 0.352 ± 0.004 S/m | 1202.08 ± 2.8 kg/m3 | 0.556 ± 0.006 S/m | 1194.78 ± 2.8 kg/m3 | 0.821 ± 0.008 S/m | 1187.79 ± 2.7 kg/m3 | 1.15 ± 0.012 S/m | 1180.62 ± 2.7 kg/m3 | 1.545 ± 0.015 S/m | 1173.51 ± 2.6 kg/m3 | 2 ± 0.02 S/m | 2.52 ± 0.03 S/m | 3.1 ± 0.03 S/m | electrical conductivity (238.05 K): 0.00212 ± 2e-05 S/m; electrical conductivity (378.15 K): 3.73 ± 0.04 S/m; electrical conductivity (388.15 K): 4.41 ± 0.04 S/m; electrical conductivity (398.15 K): 5.13 ± 0.05 S/m; electrical conductivity (408.15 K): 5.88 ± 0.06 S/m; electrical conductivity (418.15 K): 6.64 ± 0.07 S/m; electrical conductivity (428.15 K): 7.45 ± 0.07 S/m; electrical conductivity (438.15 K): 8.29 ± 0.08 S/m; electrical conductivity (448.15 K): 9.15 ± 0.09 S/m; electrical conductivity (458.15 K): 10.04 ± 0.1 S/m; electrical conductivity (468.15 K): 10.9 ± 0.11 S/m
CCn1cc[n+](C)c1.F[B-](F)(F)F [1-ethyl-3-methylimidazolium tetrafluoroborate] | 0.106 ± 0.0011 S/m | 0.228 ± 0.002 S/m | 0.423 ± 0.004 S/m | 0.703 ± 0.007 S/m | 1293.75 ± 3.2 kg/m3 | 1.08 ± 0.011 S/m | 1288.03 ± 3.2 kg/m3 | 1.546 ± 0.015 S/m | 1280.07 ± 3.2 kg/m3 | 2.11 ± 0.02 S/m | 1272.48 ± 3.1 kg/m3 | 2.77 ± 0.03 S/m | 1265.12 ± 3.1 kg/m3 | 3.51 ± 0.04 S/m | 1256.89 ± 3.1 kg/m3 | 4.34 ± 0.04 S/m | 1250.24 ± 3 kg/m3 | 5.23 ± 0.05 S/m | 6.2 ± 0.06 S/m | 7.22 ± 0.07 S/m | electrical conductivity (378.15 K): 8.29 ± 0.08 S/m; electrical conductivity (388.15 K): 9.41 ± 0.09 S/m; electrical conductivity (398.15 K): 10.6 ± 0.11 S/m; electrical conductivity (408.15 K): 11.8 ± 0.12 S/m; electrical conductivity (418.15 K): 13 ± 0.13 S/m; electrical conductivity (428.15 K): 14.22 ± 0.14 S/m; electrical conductivity (438.15 K): 15.48 ± 0.15 S/m; electrical conductivity (448.15 K): 16.8 ± 0.17 S/m; electrical conductivity (458.15 K): 18.03 ± 0.18 S/m; electrical conductivity (468.15 K): 19.3 ± 0.2 S/m
CCCCCCn1cc[n+](C)c1.F[B-](F)(F)F [1-hexyl-3-methylimidazolium tetrafluoroborate] | 0.00169 ± 1.7e-05 S/m | 0.00544 ± 5e-05 S/m | 0.0145 ± 0.00015 S/m | 0.0332 ± 0.0003 S/m | 1159.81 ± 2.6 kg/m3 | 0.0672 ± 0.0007 S/m | 1153.14 ± 2.6 kg/m3 | 0.1229 ± 0.0012 S/m | 1146.18 ± 2.5 kg/m3 | 0.207 ± 0.002 S/m | 1139.15 ± 2.5 kg/m3 | 0.326 ± 0.003 S/m | 1132.31 ± 2.5 kg/m3 | 0.483 ± 0.005 S/m | 1125.18 ± 2.4 kg/m3 | 0.683 ± 0.007 S/m | 1118.54 ± 2.4 kg/m3 | 0.926 ± 0.009 S/m | 1.214 ± 0.012 S/m | 1.545 ± 0.015 S/m | electrical conductivity (238.05 K): 0.000405 ± 4e-06 S/m; electrical conductivity (378.15 K): 1.92 ± 0.02 S/m; electrical conductivity (388.15 K): 2.33 ± 0.02 S/m; electrical conductivity (398.15 K): 2.78 ± 0.03 S/m; electrical conductivity (408.15 K): 3.26 ± 0.03 S/m; electrical conductivity (418.15 K): 3.77 ± 0.04 S/m; electrical conductivity (428.15 K): 4.31 ± 0.04 S/m; electrical conductivity (438.15 K): 4.88 ± 0.05 S/m; electrical conductivity (448.15 K): 5.46 ± 0.05 S/m; electrical conductivity (458.15 K): 6.07 ± 0.06 S/m; electrical conductivity (468.15 K): 6.69 ± 0.07 S/m
CCCCCCCC[n+]1ccn(C)c1.F[B-](F)(F)F [1-methyl-3-octylimidazolium tetrafluoroborate] | 0.00065 ± 7e-06 S/m | 0.00218 ± 2e-05 S/m | 0.00605 ± 6e-05 S/m | 0.01441 ± 0.00014 S/m | 1116.79 ± 2.4 kg/m3 | 0.0304 ± 0.0003 S/m | 1110.36 ± 2.4 kg/m3 | 0.0579 ± 0.0006 S/m | 1103.6 ± 2.3 kg/m3 | 0.1012 ± 0.001 S/m | 1096.82 ± 2.3 kg/m3 | 0.1647 ± 0.0016 S/m | 1090.04 ± 2.3 kg/m3 | 0.252 ± 0.003 S/m | 1083.22 ± 2.2 kg/m3 | 0.368 ± 0.004 S/m | 1076.46 ± 2.2 kg/m3 | 0.512 ± 0.005 S/m | 0.688 ± 0.007 S/m | 0.895 ± 0.009 S/m | electrical conductivity (238.05 K): 0.0001524 ± 1.5e-06 S/m; electrical conductivity (378.15 K): 1.134 ± 0.011 S/m; electrical conductivity (388.15 K): 1.403 ± 0.014 S/m; electrical conductivity (398.15 K): 1.701 ± 0.017 S/m; electrical conductivity (408.15 K): 2.03 ± 0.02 S/m; electrical conductivity (418.15 K): 2.38 ± 0.02 S/m; electrical conductivity (428.15 K): 2.75 ± 0.03 S/m; electrical conductivity (438.15 K): 3.15 ± 0.03 S/m; electrical conductivity (448.15 K): 3.56 ± 0.04 S/m; electrical conductivity (458.15 K): 3.99 ± 0.04 S/m; electrical conductivity (468.15 K): 4.44 ± 0.04 S/m

Reference: the NIST ThermoML archive (doi:10.1021/je900789j)
